Literature values in patent publication US12629339B2, “Lithium salt extended-release formulations; methods of making; and methods of use thereof” (Almatica Pharma LLC, priority 2023, dated 2026).

Conditions: serum lithium level

Which “Toxic concentration of lithium” value does the source give for `[Li]` [lithium] here?
The value was ≥ 1.5 mEq/L.
